The values below come from patent US8173693B2, “Benzenesulfonamide derivatives and pharmaceutical composition thereof” (Purzer Pharmaceutical Co., Ltd., priority 2010, dated 2012).

Assay [1] concerns Human gastric adenocarcinoma AGS cells. The assay can be described thus: SRB assay. It counts as cell-based. The settings on record: 48 hr.
Assay [2] concerns 4T1-Luc cells. Nature of the assay: In vitro analysis on cell morphology. The class given is cell-based, murine. To be noted: 48 hr. On the procedure: After the 4T1-Luc cells were treated with GM119, a phase-contrast microscope was used to observe the cell morphology of the 4T1-Luc cells. Cover glasses were placed in 6-well plates, and each well was seeded with 50,000 tumor cells. The tumor cells were developed in medium with 10% fetal bovine serum, and then treated with 0, 0.01, 0.1, 1, or 10 μM of GM119 for 48 hr. The cells were stained with Giemsa Stain solution (0.38 g of Giemsa powder, 15% of methanol, and 5% of glycerol). After the cells were washed, dried, and sealed, the images of the cells were photographed with a phase-contrast microscope.

The subject of assay [3] is Human breast carcinoma MCF-7 cells. Nature of the assay: SRB assay. It counts as cell-based. The settings on record: MCF7, 48 hr.
Assay [4] has as its system 4T1-Luc cells. The assay can be described thus: In vivo evaluation, short-time treatment, mice implanted with 4T1-Luc cells. As for the experimental part:
GM119 (25 mg/kg) was applied to a mouse implanted with 4T1-Luc cells for a short time, and then Taxol (10 mg/kg) was applied thereto to observe the effect of GM119 on the 4T1-Luc cells.
A suspension of 4T1-Luc cells in matrigel was injected into the breast adipocyte to obtain mice implanted with luciferase tumor cells. […] When the size of the tumor cells was achieved to 200-500 mm^3, the mice were divided into 2 groups, and the number of the mice in each group is ≧5. Then, 0 or 25 mg/kg of GM119 was abdominal-injected into the mice for 5 days, wherein GM119 was dissolved in cremophor, and the volume of injection to each mouse is 50 μl. Then, 0 or 10 mg/kg of Taxol was abdominal-injected into the mice for every 2 days until death of the mice. The weight and the number of the mice were recorded every day to analyze the change on the weight and the survival time of the mice. After the drugs were applied to the mice, the size of the tumor cells in the mice was evaluated with bioluminescence every two days.

Assay [5] concerns murine mammary carcinoma cell line 4T1-Luc cells. Nature of the assay: 4T1-Luc cell survival, sulforhodamine B staining. The class given is cell-based. On the procedure: The murine mammary carcinoma cell line 4T1-Luc cells stably expressing the firefly luciferase gene under the selection of G418 was cultured in RPMI containing 10% fetal calf serum. The cells were maintained at 37° C. with 5% CO2 in air and subcultured twice weekly.
Each well of 96-well plates was seeded with 2,500 or 5,000 tumor cells, and the tumor cells were incubated in medium with 10% fetal bovine serum or without serum. The tumor cells were treated with 0, 0.01, 0.1, 1, or 10 μM of GM119 for 48 hr. Then, the tumor cells were fixed with 10% of trichloroacetic acid, washed with water, stained with sulforhodamine B. Then, the sample was washed with 1% of acetic acid, and Tris buffer was added into the sample. The absorption of the sample was determined at 515 nm with a Thermomax microplate reader, and repeated for 4 times. The absorption of the cells without drug treatment served as 100% survival, and the survival was calculated and represented by average±standard deviation %.

For the next assay, the system named is COLO-205 Colon cancer. The assay can be described thus: MTT assay. The class given is cell-based. The settings on record: Homo sapiens, 72 hr. As for the experimental part:
(§1) All cell lines were maintained in RPMI 1640 supplied with 10% fetal bovine serum and maintained in a humidified chamber at 37° C. containing 5% CO2. Then, all cell lines were treated with compounds for 72 hr and subsequently incubated with 0.4 mg/mL of MTT at 37° C. for 2 hr. The medium was removed, and DMSO was added to dissolve MTT precipitate. Cell proliferation was determined by measuring the optical density at 540 nm using a Thermomax microplate reader (Molecular Devices, Sunnyvale, Calif.), and the IC50 values of the benzenesulfonamide derivatives of the present invention were calculated.

In assay [6] the test system is WI-38 Normal lung fibroblast. Nature of the assay: MTT assay. It counts as cell-based. The settings on record: Homo sapiens. As for the experimental part:
as §1

Another assay deals with HeLa Cervical cancer. Nature of the assay: MTT assay. The class given is cell-based. The settings on record: Homo sapiens, 72 hr. As for the experimental part: as §1
Assay [7] relates to WSI Normal skin fibroblast. Nature of the assay: MTT assay. The class given is cell-based. As for the experimental part:
as §1

Assay [8] relates to Human breast carcinoma MCF-7 cells. The assay can be described thus: SRB assay. The settings on record: MCF7, 48 hr. It counts as cell-based. As for the experimental part: (§2) Human Bladder Cancer TSGH cells, Human hepatoblastoma HepG2 cells, Human colorectal adenocarcinoma HT-29 cells, human nasopharyngeal carcinoma KB cells, Human gastric adenocarcinoma AGS cells, Human breast carcinoma MCF-7 cells, lung carcinoma A549 cells, and Human prostate carcinoma PC-3 cells were used in the preliminary cytotoxicity assays of the benzenesulfonamide derivatives of the present invention, and the inhibition activity against the tumor cells was evaluated.
(§3) All cell lines were maintained in RPMI 1640 supplied with 10% fetal bovine serum into 96-well microtiter plates and maintained in a humidified chamber at 37° C. containing 5% CO2. After 24 hr, cell lines in partial wells were fixed in situ with 10% trichloroacetic acid (TCA) to represent a measurement at the time of drug addition (T0). Then, cell lines in other wells were incubated with the benzenesulfonamide derivatives of the present invention for an additional 48 hr, and fixed in situ with 10% TCA to represent a measurement at the time of stopping reaction (Tx). After rinsing the plates with PBS and air-drying, 0.4% sulforhodamine B solution (weight per volume in 1% acetic acid) was added to each well and the plates were incubated for 10 min at room temperature. Unbound sulforhodamine B was removed with 1% acetic acid and the plates were air-dried. Cells bound with sulforhodamine B was subsequently solubilized with 10 mM Tris base (Trizma; Sigma). Cell proliferation was determined by measuring the optical density at 515 nm using a Thermomax microplate reader (Molecular Devices, Sunnyvale, Calif.). The half-inhibition concention (GI50) of the benzenesulfonamide derivatives of the present invention was obtained from the detected optical density.
This is another data set of the same source.

For assay [9], the system named is Human hepatoblastoma HepG2 cells. Nature of the assay: SRB assay. The settings on record: 48 hr. It counts as cell-based. On the procedure: as §2, §3
Assay [10] has as its system HUVECs (human umbilical vein endothelial cells). The assay can be described thus: In vitro tube formation assay (capillary formation, VEGF-induced). It counts as cell-based. As for the experimental part: At day 1, HUVECs (human umbilical vein endothelial cells) cocultured with human fibroblasts were incubated in optimized medium and maintained in a humidified chamber at 37° C. containing 5% CO2. […] The cells were stimulated with VEGF (25 ng/mL) without or with GM119 (0.1, 1 or 10 μM). The media were replaced at days 3, 6, and 8. At day 11, the tube-like structures of the umbilical vein endothelial cells were observed by an anti-human CD31 antibody (Kurabo, Tokyo, Japan), and the area of the tube-like structures was analyzed.

The subject of assay [11] is Human hepatoblastoma HepG2 cells. Nature of the assay: SRB assay. It counts as cell-based. The settings on record: 48 hr. The source holds these as a separate data set.

Some results are limits rather than exact numbers.

For `COc1ccc(S(=O)(=O)Nc2cccc3c2[nH]c2c(C)ccc(C)c23)cc1` [Compound 6c, N-(5,8-Dimethyl-9H-carbazol-1-yl)-4-methoxybenzenesulfonamide], the IC50 in assay [1] was 1000 nM; in [3], > 10 µM; in the assay on COLO-205 Colon cancer it was 50 nM; in assay [6], > 10 µM; in the assay on HeLa Cervical cancer, 600 nM; in assay [7] it was > 10 µM. Moreover, the IC50 in assay [11] was 1000 nM. In the assay with 4T1-Luc cells [2] (0.01 μM), the “growth of the 4T1 cells (microscope images)” value is “the growth of the 4T1 cells can be inhibited”. In addition, the “inhibition of the 4T1 cells (microscope images)” value with 4T1-Luc cells [2] (10 μM) was “the inhibition of the 4T1 cells is apparent”. The “survival of the mice” value with 4T1-Luc cells [4] (short time: GM119 25 mg/kg abdominal-injected for 5 days, then Taxol 10 mg/kg every 2 days, FIG. 2) is given as “the survival of the mice can be greatly increased”. The “growth of the tumor cells (bioluminescence)” value in the assay on 4T1-Luc cells [4] (short-time treatment, GM119 25 mg/kg, Taxol 10 mg/kg) is “the growth of the tumor cells can be inhibited”. In [5] (0.01 μM, 48 hr, medium with or without serum, FIG. 1), the “growth of the 4T1 cells” value is given as “the growth of the 4T1 cells can be inhibited”. Moreover, the “inhibition of the 4T1 cells” value in [5] (10 μM, 48 hr, FIG. 1) is on record as “the inhibition of the 4T1 cells is apparent”. In addition, in assay [5] (in vitro assay), the “killing of 4T1 cells (FIG. 1 legend)” value is recorded as “kills the murine mammary carcinoma 4T1 cell”. Moreover, the GI50 in [8] came to 630 nM; in [9] it was 70 nM. Also, in [10] (10 μM GM119 vs 10 μM suramin), the “inhibition activity compared with suramin” value is given as “almost equivalent to that of suramin”. Also, the “inhibition of formation of tube-like structures induced by VEGF” value in assay [10] (VEGF 25 ng/mL, GM119 0.1, 1 or 10 μM, day 11) was “can inhibit the formation of the tube-like structures”.
